From patent US20260000078A1, “ANTI-MICROBIAL SYSTEM” (The Procter & Gamble Company, priority 2024, published 2026)
≈ marks a conversion by molar mass, not a printed value.

What was measured:
Format in all cases: cell-based
[1] = system: Staphylococcus aureus ATCC 6538; experiment: Minimal Kill Concentration (MKC) assay, 96 well plate; settings: 20-minute contact time
Method: (§1) The MKC assay is a 96 well plate method to determine the minimum concentration of a test material or composition needed to kill Gram-negative and Gram-positive bacteria (Escherichia coli ATCC 8739 and Staphylococcus aureus ATCC 6538, respectively). The bacterial suspensions are prepared from 10× freezer stocks with 15% glycerol. The freezer stocks are centrifuged at 13,000×g (Eppendorf Centrifuge […] No. 5417 05483) for 1 minute. The supernatant is removed, and the cell pellet is resuspended in 1 mL saline (Sodium chloride solution 0.9%, Cytiva REF: Z1376), and then transferred to 9 mL saline. The target cfu/ml is 10^8, which is confirmed via serial diluting and plating on TSA plates (Tryptic Soy Agar-Sigma-Aldrich Cat #22091). Then 50 μL of bacteria is added to each well of a 96 well 0.5 mL V-Bottom plate (Greiner bio-one REF: 786201) to make a bacteria plate, one separate plate for each bacterium. The dilutions of the test compounds are prepared in a separate 96 well plate. The test compounds are tested at six dilutions in duplicates or with no replication diluted across the entire plate. The test compounds are prepared in Dimethyl Sulfoxide (Sigma Aldrich GR ACS Cat. No: MX1458-6) or sterile water at 2× the intended test concentration, and then serially diluted in the appropriate vehicle 1:2 across the plate using a multichannel. 50 μL from the test compound plate is added to each well in the bacteria plate all at once using an Integra VIAFLOW 96 channel pipette (Model: VIAFLO 96) and the Integra 300 μL Head (Part No. 6103). With addition of the 2× compounds bacteria plate, the compounds are diluted to a 1× test concentration. The addition of the test compounds to the bacteria wells starts the 20-minute contact time. The plates are mixed well using a Mix-Mate (Eppendorf SE). After 20 minutes, 1 μL from each well of the bacteria plate is transferred to premade Tryptic Soy Agar (TSA) plates (OmniTray Cell Culture Treated w/Lid Sterile, Cat. No: 165218) for spot plating using the Integra VIAFLOW 96 with the Integra 12.5 μL head (Part No. 6101). Then 4 μL from each well of the bacteria/compound plate is transferred to another 96 well plate containing 36 μL of neutralizer broth Modified Letheen Broth (BD Difco Letheen Broth, Modified REF 263010). The contact time is stopped at 20 minutes once the compound plate is neutralized. The plates are mixed well using a Mix-Mate and then 1 μL of the neutralizer+sample mix is transferred to a TSA OmniTray plate using the Integra VIAFLOW and Integra 12.5 μL head. The TSA spot plates are then incubated overnight for 20 hours at 37° C. in an Incubator. This process is done for both bacteria species. After overnight incubation, the plates are removed from the incubator and the results recorded by observing which dilutions had bacterial kill/growth. The last dilution that had kill for both replicates is recorded as the MKC. A positive control of Benzalkonium chloride (Sigma Aldrich Cat. No.: 12060-5G) and vehicle controls are always included in the test.

[2] = system: Escherichia coli ATCC 8739; experiment: as above; settings: 20-minute contact time
Method: as §1

[3] = system: Staphylococcus aureus ATCC #6538; experiment: Minimum Inhibitory Concentration (MIC) assay with Minimum Biocidal Concentration (MBC); settings: solvent DMSO; for MIC / MBC: Staphylococcus aureus, ATCC6538; for MIC: 24±2 hrs at 35° C., OD<50% of growth control, read-out: S. aureus MIC (ppm); for MBC: read-out: S. aureus MBC (ppm)
Method: The Minimum Inhibitory Concentration (MIC) assay is a 96-well high throughput method that determines the minimum concentration of an active required to inhibit the growth of microorganisms. Compounds are evaluated against the following microorganisms: Staphylococcus aureus ATCC #6538 (American Type Culture Collection, Manassas, Virginia, USA). To prepare solutions, the bacteria are streaked on Tryptic Soy Agar (TSA, Becton Dickinson DIFCO™ Tryptic Soy Agar, Franklin Lakes, NJ, USA) and incubated at 30-35° C. for 18-24 hrs. Confluent growth is transferred to saline (0.85% NaCl and turbidometrically adjusted to a target concentration of 10^7-10^8 CFU/ml. This inoculum solution is further diluted 1:1000 in Tryptic Soy Broth (TSB, Becton Dickinson, Franklin Lakes, NJ, USA) for assay use. Two-fold serial dilutions are prepared in Dimethylsulfoxide (DMSO, Thermo Scientific Pierce DMSO, Sequencing Grade) or sterile water for each test sample. In a sterile 96-well plate, each dilution is further diluted in broth inoculum such that each well contained 5% dilution and 95% broth inoculum. Bacteria and yeast plates were incubated on an orbital shaker (Heidolph Titramax 1000 Vibrating Platform Shaker, 200-300 rpm) for 24±2 hrs at 35° C. After incubation, the optical density (OD) of each well is measured in a spectrophotometer (Victor Nivo Multimode Plate Reader) at 600 nm. […] The MBC was determined as the most dilute concentration with no visible growth.

[4] = most dilute concentration with no visible growth on neutralizing agar

| Structure (SMILES) | MKC (ppm) S. aureus ([1]; solvent water) [ppm] | MKC (ppm) E. coli ([2]; solvent water) [ppm] | MIC [3] [µg/mL] | MBC [3, 4] [µg/mL] | S. aureus MBC (ppm) [3, 4] [ppm] | MKC (ppm) S. aureus ([1]; solvent DMSO) [ppm] | MKC (ppm) E. coli ([2]; solvent DMSO) [ppm] |
| --- | --- | --- | --- | --- | --- | --- | --- |
| CCCCCC(CC(=O)O)O[C@@H]1O[C@@H](C)[C@H](O)[C@@H](O)[C@H]1O (stereo partly drawn) [RhaC8, 3-(((2R,3R,4R,5R,6S)-3,4,5-trihydroxy-6-methyltetrahydro-2H-pyran-2-yl)oxy)octanoic acid] | >1225 | >1225 | 10000 (≈ 32.6 mM) | > 10000 |  |  |  |
| CCCCCCCC(CC(=O)O)O[C@@H]1O[C@@H](C)[C@H](O)[C@@H](O)[C@H]1O (stereo partly drawn) [RhaC10, 3-(((2R,3R,4R,5R,6S)-3,4,5-trihydroxy-6-methyltetrahydro-2H-pyran-2-yl)oxy)decanoic acid] | >1338 | >1338 | > 10000 | > 10000 |  |  |  |
| CCCCCCCCCC(O)CC(=O)O (racemic) [DL-β-Hydroxylauric acid] | >865 | >865 |  |  | 650 |  |  |
| CCCCCCCCCCCC(CC(=O)O)O[C@@H]1O[C@@H](C)[C@H](O)[C@@H](O)[C@H]1O (stereo partly drawn) [RhaC14, 3-(((2R,3R,4R,5R,6S)-3,4,5-trihydroxy-6-methyltetrahydro-2H-pyran-2-yl)oxy)tetradecanoic acid] |  |  | 625 (≈ 1.6 mM) | > 10000 |  | 781 | 781 |
| CCCCCCCC(O)CC(=O)O (racemic) [(±)-3-Hydroxydecanoic acid] | 753 | 753 |  | > 1130 |  |  |  |
| CCCCCCCCC[C@@H](O)CC(=O)O [(3R)-3-hydroxydodecanoic acid] | 865 | >865 |  |  |  |  |  |
| CCCCCC(O)CC(=O)O (racemic) [(±)-3-Hydroxyoctanoic acid] | >641 | >641 |  |  |  |  |  |
| CCCCCCCCCCCCCC(O)CC(=O)O (racemic) [DL-β-Hydroxypalmitic acid] |  |  |  |  |  | >1090 | 136 |
| CCCCCCCCCCCC(O)CC(=O)O (racemic) [DL-β-Hydroxymyristic acid] |  |  |  |  |  | 244 | 122 |
| CCCCCCCCCC(CC(=O)O)O[C@@H]1O[C@@H](C)[C@H](O)[C@@H](O)[C@H]1O (stereo partly drawn) [RhaC12, 3-(((2R,3R,4R,5R,6S)-3,4,5-trihydroxy-6-methyltetrahydro-2H-pyran-2-yl)oxy)dodecanoic acid] | 725 | >1450 | 1250 (≈ 3.45 mM) | > 10000 |  |  |  |
